Source: US6624156B2, “Methods of making and method of using hybrid cholinergic agents and compositions” (Board of Trustees of the University of Arkansas, priority 2001, dated 2003)

Key:
M3 muscarinic receptor [1] = target: T1, M3 muscarinic receptor (Rattus norvegicus, UniProt P08483); test: Inhibition of 3H-N-methylscopolamine binding to CHO cells expressing M3 muscarinic receptors; settings: for IC50: read-out: IC50 (inhibition of 3H-NMS binding), CHO cells expressing M3, 0.6 nM 3H-NMS, 45 min 37° C., mean±SE of at least three assays
T1 construct: host or cells: CHO cells
Procedure: The objective of this experiment was to evaluate whether LCC interacted with muscarinic M3 receptors. CHO cells expressing M3 muscarinic receptors were obtained from the American Type Culture Collection (ATCC), MD. The interaction of LCC with the M3 receptors was determined by an assay which measures inhibition of ^3H-N-methylscopolamine (^3H-NMS) binding to the M3 receptor. […] Lithocholyltaurine and lithocholylglycine are physiological conjugates of lithocholic acid.
5×10^5 CHO cells (0.5 ml) were incubated for 45 minutes at 37° C. with 0.6 nM ^3H-NMS alone or with unlabeled ligand. Nonspecific binding was determined in the presence of 10.0 μM unlabeled NMS. The reaction was terminated by centrifuging 0.5 ml of cell suspension at 10,000 g for 7 minutes at room temperature. 100 μl of supernatant was sampled for determination of free ligand concentration, and the remaining liquid was carefully decanted. The cell pellet was washed, drained, and dissolved in 100 μl Soluene 350.

M3 muscarinic receptor [2] = target: T1, M3 muscarinic receptor; test: Acetylcholine-induced inositol phosphate (IP) formation in CHO-M3 cells; type: cell-based
Procedure: Post-receptor (downstream) actions of LCC were determined by measuring increases in inositol phosphates (IP) after incubating cells with 3H-myo-inositol. CHO cell inositol 1,4,5-triphosphate (IP3) was determined by the methods of Hu and El-Fakahany (1990, Mol. Pharmacol. 38:895-903) and Labarca et al., (1987, Methods Enzymol. 141:192-201). 5×10^4 cells/well were incubated with 1.0 μCi/ml myo-[2-^3H]inositol for 24 hour at 37° C., treated with 20 mM LiCl for 30 minutes at 37° C. Cells were then incubated with the test agents for 30 minutes at 37° C. The IP3 fraction was separated by ion-exchange chromatography (AG2 X8 resin), and the dpm in this fraction were determined by liquid scintillation.
The highest LCC concentration tested (0.1 mM) reduced ACh-induced IP production by 80%, thereby confirming competition of LCC and ACh for the same receptor, indicating interaction of LCC and ACh with the same receptor. Thus, LCC is an M3 muscarinic receptor antagonist.

T1 sequence (P08483 whole entry): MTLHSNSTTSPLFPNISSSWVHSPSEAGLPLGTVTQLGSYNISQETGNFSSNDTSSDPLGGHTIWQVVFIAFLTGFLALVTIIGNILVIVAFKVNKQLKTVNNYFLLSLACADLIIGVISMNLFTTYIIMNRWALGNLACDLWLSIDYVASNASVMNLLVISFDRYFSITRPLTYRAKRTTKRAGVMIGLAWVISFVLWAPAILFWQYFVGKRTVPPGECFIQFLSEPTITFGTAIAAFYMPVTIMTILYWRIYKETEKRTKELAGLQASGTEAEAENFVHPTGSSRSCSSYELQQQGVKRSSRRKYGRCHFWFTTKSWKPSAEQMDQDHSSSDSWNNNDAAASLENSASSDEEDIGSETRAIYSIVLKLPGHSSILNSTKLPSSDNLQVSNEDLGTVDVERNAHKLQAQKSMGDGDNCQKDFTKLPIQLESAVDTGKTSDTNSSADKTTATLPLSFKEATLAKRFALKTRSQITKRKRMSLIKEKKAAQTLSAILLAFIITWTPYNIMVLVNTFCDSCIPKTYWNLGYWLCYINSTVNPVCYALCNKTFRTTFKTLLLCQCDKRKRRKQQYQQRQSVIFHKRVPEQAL

Row | SMILES | potency relative to acetylcholine at inhibiting 3H-NMS binding (M3 muscarinic receptor [1]; LCC vs acetylcholine) | potency relative to carbachol at inhibiting 3H-NMS binding (M3 muscarinic receptor [1]; LCC vs carbachol) | IC50 (M3 muscarinic receptor [1]) | inhibition of ACh-induced IP formation compared with equal concentrations of LCT (M3 muscarinic receptor [2]; 10.0 μM acetylcholine) | reduction of ACh-induced IP production (M3 muscarinic receptor [2]; 0.1 mM LCC, 10.0 μM acetylcholine) | effect of agent alone on IP formation (M3 muscarinic receptor [2]; LCC alone)
1 | C[C@H](CCC(=O)OCC[N+](C)(C)C)[C@H]1CC[C@H]2[C@@H]3CC[C@@H]4C[C@H](O)CC[C@]4(C)[C@H]3CC[C@]12C [LCC, lithocholylcholine] | about 2 times | about 60 times | 6.4 ± 0.8 µM | overall greater extent | 80% | not alter IP formation
2 | C[C@H](CCC(=O)NCC(=O)O)[C@H]1CC[C@H]2[C@@H]3CC[C@@H]4C[C@H](O)CC[C@]4(C)[C@H]3CC[C@]12C [Lithocholylglycine, reference compound] |  |  | 228 ± 41.2 µM |  |  | 
3 | C[C@H](CCC(=O)NCCS(=O)(=O)O)[C@H]1CC[C@H]2[C@@H]3CC[C@@H]4C[C@H](O)CC[C@]4(C)[C@H]3CC[C@]12C [Lithocholyltaurine, lithocholyltaurine, reference compound] |  |  | 165 ± 38.5 µM |  |  | 
